Measured values reported in patent US20070167528A1, “Methods of treating hepatocellular carcinoma with denspm” (Genzyme Corporation, priority 2004, published 2007).

Key:
[1] = Physical and chemical stability of DENSPM preparations at room temperature; format: physicochemical
Experimental: DENSPM may be supplied as a lyophilized powder, for example packaged in 10 mL clear glass vials containing 215 mg. Such a lyophilized powder may be prepared by dissolving DENSPM hydrochloride in sterile WFI to provide a 5% solution. Such solution may be pH adjusted to a pH of preferably between about 5.8 and 6.2, most preferably 6.0, with 2N NaOH. 4.3 ml of this solution is sterile filled into the glass vials thru Millipak (R) 0.45 and 0.22 micron filters and then lyophilized. […] DENSPM is reconstituted with 4.3 mL of water for injection, USP. The resulting solution contains 50 mg/mL of DENSPM and is chemically and physically stable for up to approximately 96 hours at room temperature. When further diluted in 50 mL normal saline, the resulting admixture is chemically and physically stable for up to 24 hours when stored at room temperature. After reconstitution, the drug is normally used within 8 hours because it contains no preservatives.

[2] = Solubility of DENSPM hydrochloride salt in sterile water for injection; format: physicochemical; conditions: as its hydrochloride salt
Description: The terms “pharmaceutical composition” and “pharmaceutical preparation” are used interchangeably herein to mean DENSPM in association with a pharmaceutically-acceptable carrier. Excipients and/or adjuvants may optionally be added to the pharmaceutical preparations. DENSPM preparations may be conveniently provided in unit dosage form and may be prepared by methods well-known in the art of pharmacy. Formulations suitable for intravenous administration are preferred. […] Such a solution may be filled into individual dose vials and lyophilized for future reconstitution and administration.

[3] = stated as known effect of DENSPM; cited from earlier work

## CCNCCCNCCCNCCCNCC [DENSPM, N,N′-Bis[3-(ethylamino)propyl],1,3-propanediamine]
[1]; further diluted in 50 mL normal saline, stored at room temperature
  chemical and physical stability of diluted admixture: up to 24 hours
[1]; lyophilized powder from 5% DENSPM hydrochloride solution, pH about 6.0, stored at room temperature
  physical and chemical stability of lyophilized powder: physically and chemically stable
[1]; reconstituted with 4.3 mL water for injection, 50 mg/mL, room temperature
  chemical and physical stability of reconstituted solution: ≤ 96 h
[2]
  solubility: relatively high solubility
[3]
  serum creatinine levels: transiently and reversibly elevate serum creatinine levels
